From paper PMC9144807, “Fluorine-18 Labeled Urea-Based Ligands Targeting Prostate-Specific Membrane Antigen (PSMA) with Increased Tumor and Decreased Renal Uptake” (Pharmaceuticals, 2022) come the findings set out here.

For this assay, the target named is T1, PSMA (Homo sapiens, UniProt Q04609).
T1 construct: expressed in transfected cells; host or cells: PC3(+) (PC3 human prostate cancer cells transfected with human PSMA), grown as xenograft tumors in athymic mice; tumor membrane preparations
T1 sequence (Q04609 whole entry): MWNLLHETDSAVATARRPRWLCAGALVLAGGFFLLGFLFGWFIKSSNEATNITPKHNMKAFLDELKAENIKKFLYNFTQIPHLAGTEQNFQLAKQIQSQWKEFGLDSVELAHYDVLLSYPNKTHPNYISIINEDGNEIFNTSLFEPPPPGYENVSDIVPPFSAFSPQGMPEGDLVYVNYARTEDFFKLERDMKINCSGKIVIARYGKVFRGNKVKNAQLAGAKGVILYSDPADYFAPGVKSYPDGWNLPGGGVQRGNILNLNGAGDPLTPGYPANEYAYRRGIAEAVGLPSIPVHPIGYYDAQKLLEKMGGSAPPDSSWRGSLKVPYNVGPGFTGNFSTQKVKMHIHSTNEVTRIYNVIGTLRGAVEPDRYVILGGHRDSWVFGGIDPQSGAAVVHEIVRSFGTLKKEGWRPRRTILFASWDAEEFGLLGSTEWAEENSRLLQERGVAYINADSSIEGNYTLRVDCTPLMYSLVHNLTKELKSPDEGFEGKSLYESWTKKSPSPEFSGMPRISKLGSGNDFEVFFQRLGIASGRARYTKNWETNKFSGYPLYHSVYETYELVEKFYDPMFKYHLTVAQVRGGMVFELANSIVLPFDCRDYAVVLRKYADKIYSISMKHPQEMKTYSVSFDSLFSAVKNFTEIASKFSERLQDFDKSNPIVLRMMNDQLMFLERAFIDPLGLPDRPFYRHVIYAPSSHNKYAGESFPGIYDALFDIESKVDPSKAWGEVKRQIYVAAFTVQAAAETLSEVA
In words: In vitro competition binding assay with [18F]DCFPyL as radioligand, PC3(+) tumor membrane preparations.
For orientation: Ki means the equilibrium dissociation constant of an inhibitor or competing ligand from its target. Low readings indicate a stronger hold on the target, high ones a looser hold on the target. `O=C(O)CC[C@H](NC(=O)N[C@@H](CCCCNC(=O)CO/N=C\c1ccc(F)cc1)C(=O)O)C(=O)O` [1a, (((S)-5-(2-(aminooxy)acetamido)-1-carboxypentyl)carbamoyl)-L-glutamic acid 4-fluorobenzaldehyde oxime, reference compound]: the affinity, expressed as Ki, was 0.101 nM. To `O=C(O)CC[C@H](NC(=O)N[C@@H](CCCCNC(=O)CCCCCO/N=C\c1ccc(F)nc1)C(=O)O)C(=O)O` [2b, (((. S)-5-(6-(Aminooxy)hexanamido)-1-carboxypentyl)carbamoyl)-L-glutamic acid 6-fluoronicotinaldehyde oxime] belongs 0.901 nM. For the compound `O=C(O)CC[C@H](NC(=O)N[C@@H](CCCCNC(=O)CCCCCO/N=C\c1ccc(F)cc1)C(=O)O)C(=O)O` [2a, (((. S)-5-(6-(Aminooxy)hexanamido)-1-carboxypentyl)carbamoyl)-L-glutamic acid 4-fluorobenzaldehyde oxime], the affinity, expressed as Ki, was 0.621 nM. As for `O=C(O)CC[C@H](NC(=O)N[C@@H](CCCCNC(=O)CO/N=C\c1ccc(F)nc1)C(=O)O)C(=O)O` [1b, (((S)-5-(2-(aminooxy)acetamido)-1-carboxypentyl)carbamoyl)-L-glutamic acid 6-fluoronicotinaldehyde oxime], the Ki stood at 0.312 nM.
